Laboratory results reported in patent US10829778B2, “Plants having increased tolerance to herbicides” (BASF SE, priority 2013, dated 2020).

How the values were obtained:
Experiment in all cases: HPPD activity assay, wildtype enzyme
Settings in all cases: Table 12, normalized to Arabidopsis HPPD
Avena HPPD = assay type: biochemical, Avena sativa
Description: (§1) HPPD produces homogentisic acid and CO2 from 4-hydroxyphenylpyruvate (4-HPP) and O2. The activity assay for HPPD is based on the analysis of homogentisic acid by reversed phase HPLC.
(§2) The assay mixture can contain 150 mM potassium phosphate buffer pH 7.0, 50 mM L-ascorbic acid, 100 μM Catalase (Sigma-Aldrich), 1 μM FeSO4 and 0.2 units of purified HPPD enzyme in a total volume of 505 μl. 1 unit is defined as the amount of enzyme that is required to produce 1 nmol of HGA per minute at 20° C.
(§3) After a preincubation of 30 min the reaction is started by adding 4-HPP to a final concentration of 0.05 mM. The reaction is allowed to proceed for 45 min at room temperature. The reaction is stopped by the addition of 50 μl of 4.5 M phosphoric acid. The sample is filtered using a […] pore size PVDF filtration device.
(§4) 5 μl of the cleared sample is analyzed on an UPLC HSS T3 column (particle size 1.8 μm, dimensions 2.1×50 mm; Waters) by isocratic elution using 90% 20 mM NaH2PO4 pH 2.2, 10% methanol (v/v).
(§5) HGA is detected electrochemically at 750 mV (mode: DC; polarity: positive) and quantified by integrating peak areas (Empower software; Waters).
(§6) Inhibitors are dissolved in DMSO (dimethylsulfoxide) to a concentration of 0.5 mM. From this stock solution serial five-fold dilutions are prepared in DMSO, which are used in the assay. […] IC50 values are calculated using non-linear regression. […]

Synechoccus HPPD = assay type: biochemical, Synechococcus
Description: as §1, §2, §3, §4, §5, §6

Chlamydomonas HPPD1a = assay type: biochemical, Chlamydomonas reinhardtii
Description: as §1, §2, §3, §4, §5, §6

Cc1nonc1NC(=O)c1ccc(S(C)(=O)=O)c(S(C)(=O)=O)c1C [Inhibitor 1, 2-methyl-N-(4-methyl-1,2,5-oxadiazol-3-yl)-3,4-bis(methylsulfonyl)benzamide]
Normalized tolerance index TI Inhibitor 1 (Avena HPPD): 1.3
Normalized tolerance index TI Inhibitor 1 (Synechoccus HPPD): 69.9
Normalized tolerance index TI Inhibitor 1 (Chlamydomonas HPPD1a): 1.7
